Patent publication US12281119B2, “Imidazo[2,1-f][1,2,4]triazin-4-amine derivatives as TLR7 agonist” (BEIGENE, LTD., priority 2019, dated 2025)

Experiments:
Assay type in all cases: cell-based
human TLR7 [1] = molecular target: T1, human TLR7 (Homo sapiens, UniProt Q9NYK1); test: TLR7 stimulation determined using HEK-Blue Detection; parameters: expressed in transfected cells; host or cells: HEK293 (HEK-Blue hTLR7); conditions: HEK-Blue hTLR7 cells, HEK-Blue Detection (A77-A124), 16 hr, relative to Resiquimod maximum
T1 sequence (Q9NYK1 27-1049): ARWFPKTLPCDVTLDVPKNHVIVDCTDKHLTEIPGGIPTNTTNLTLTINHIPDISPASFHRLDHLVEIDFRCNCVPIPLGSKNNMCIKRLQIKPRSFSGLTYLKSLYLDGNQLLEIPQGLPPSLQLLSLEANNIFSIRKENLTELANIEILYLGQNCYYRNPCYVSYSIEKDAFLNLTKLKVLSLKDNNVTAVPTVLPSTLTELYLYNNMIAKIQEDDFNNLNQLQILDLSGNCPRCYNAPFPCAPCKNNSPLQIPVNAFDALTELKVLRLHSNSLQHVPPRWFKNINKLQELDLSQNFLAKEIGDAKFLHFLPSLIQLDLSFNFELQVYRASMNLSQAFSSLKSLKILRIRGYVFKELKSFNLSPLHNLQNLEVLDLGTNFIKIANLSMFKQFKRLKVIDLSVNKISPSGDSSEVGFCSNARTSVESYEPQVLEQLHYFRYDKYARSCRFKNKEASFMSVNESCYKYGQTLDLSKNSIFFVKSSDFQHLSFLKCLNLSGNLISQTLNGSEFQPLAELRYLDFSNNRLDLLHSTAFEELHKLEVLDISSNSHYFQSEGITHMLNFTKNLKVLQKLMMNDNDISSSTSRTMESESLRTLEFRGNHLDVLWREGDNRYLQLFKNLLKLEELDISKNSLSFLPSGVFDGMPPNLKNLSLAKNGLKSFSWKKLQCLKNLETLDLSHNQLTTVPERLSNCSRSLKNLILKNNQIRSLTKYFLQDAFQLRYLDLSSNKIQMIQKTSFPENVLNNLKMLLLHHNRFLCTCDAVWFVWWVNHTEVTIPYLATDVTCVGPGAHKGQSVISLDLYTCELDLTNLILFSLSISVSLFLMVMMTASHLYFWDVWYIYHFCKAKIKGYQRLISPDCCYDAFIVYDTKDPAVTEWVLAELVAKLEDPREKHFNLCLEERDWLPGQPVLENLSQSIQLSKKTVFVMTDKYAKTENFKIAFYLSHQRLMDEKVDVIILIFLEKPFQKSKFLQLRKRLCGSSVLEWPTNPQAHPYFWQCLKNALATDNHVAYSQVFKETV
Source text: TLR7 Stimulation Determined Using HEK-Blue Detection
This assay was designed for studying the stimulation of human TLR7 protein in HELK-Blue hTLR7 tool cell line by monitoring the activation of NF-κB. HEK-Blue hTLR7 cells were obtained by co-transfection of the hTLR7 gene and an optimized secreted embryonic alkaline phosphatase (SLAP) reporter gene into HEK293 cells. The SLAP reporter gene was placed under the control of the IFN-β minimal promoter fused to five NF-κB and AP-1-binding sites. Stimulation with a TLR7 ligand activates NF-κB and AP-1 which induce the expression of SLAP. Levels of SLAP can be easily determined with HEK-Blue Detection, a cell culture medium that allows for real-time detection of SLAP. HLK-Blue Detection contains all the nutrients necessary for cell growth and a specific SLAP color substrate. The hydrolysis of the substrate by SLAP produces a purple/blue color that can be measured with a spectrophotometer.
When growing to 50-80%0 confluency, HLK-Blue hTLR7 cells were plated into 96-well plate (costar 3599) at a density of 40000 cells/well. Then compounds were added with serial dilutions over 10 points with a 0.04 nM-10 μM final concentration range in 0.1% DMSO/BLK-Blue Detection. The plates were then incubated for 16 hr at 37° C. in […] and vortex for 30s before measurement. The optical density at 620-655 nm was read on BMG PHLRAstar FSX instrument. The EC50 for each compound was determined by calculating the percentages of the maximum activation identified with Resiquimod.

human TLR 8 protein = molecular target: T2, human TLR 8 protein (Homo sapiens, UniProt Q9NR97); test: TLR8 stimulation determined using HEK-Blue Detection; conditions: HEK-Blue hTLR8 cells, 16 hr, relative to Resiquimod or Motolimod maximum
T2 construct: expressed in transfected cells; host or cells: HEK293 (HEK-Blue hTLR8)
T2 sequence (Q9NR97 27-1041): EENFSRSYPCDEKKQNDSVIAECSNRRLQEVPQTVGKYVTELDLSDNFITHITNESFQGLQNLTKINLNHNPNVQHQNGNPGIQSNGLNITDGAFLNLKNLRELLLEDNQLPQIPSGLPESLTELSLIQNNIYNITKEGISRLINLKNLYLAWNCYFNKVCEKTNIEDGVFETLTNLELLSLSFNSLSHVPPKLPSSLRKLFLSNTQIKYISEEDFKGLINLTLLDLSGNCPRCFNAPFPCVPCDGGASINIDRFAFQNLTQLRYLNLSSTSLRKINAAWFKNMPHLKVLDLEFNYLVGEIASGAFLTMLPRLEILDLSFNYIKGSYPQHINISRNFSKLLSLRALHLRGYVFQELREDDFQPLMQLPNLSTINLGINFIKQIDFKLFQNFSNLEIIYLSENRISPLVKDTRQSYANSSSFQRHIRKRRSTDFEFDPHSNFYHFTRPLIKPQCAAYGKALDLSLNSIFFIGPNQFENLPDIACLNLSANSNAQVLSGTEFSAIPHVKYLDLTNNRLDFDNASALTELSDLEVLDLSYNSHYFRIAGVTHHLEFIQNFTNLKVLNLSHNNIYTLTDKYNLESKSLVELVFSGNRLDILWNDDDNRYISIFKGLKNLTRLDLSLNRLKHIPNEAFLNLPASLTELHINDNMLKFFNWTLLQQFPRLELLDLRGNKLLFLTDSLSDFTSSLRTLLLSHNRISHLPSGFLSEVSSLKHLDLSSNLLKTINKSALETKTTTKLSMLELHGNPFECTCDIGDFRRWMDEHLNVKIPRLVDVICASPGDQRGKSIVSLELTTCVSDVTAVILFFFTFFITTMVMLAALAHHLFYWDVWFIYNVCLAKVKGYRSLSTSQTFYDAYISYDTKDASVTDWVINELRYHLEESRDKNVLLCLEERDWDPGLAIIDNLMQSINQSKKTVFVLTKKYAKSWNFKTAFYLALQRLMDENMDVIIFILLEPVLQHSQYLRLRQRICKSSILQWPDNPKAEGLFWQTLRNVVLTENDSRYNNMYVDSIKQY
Source text: TLR8 Stimulation Determined Using HEK-Blue Detection
This assay was designed for studying the stimulation of human TLR 8 protein in HEK-Blue hTLR8 tool cell line by monitoring the activation of NF-1B. HEK-Blue hTLR8 cells were obtained by co-transfection of the hTLR8 gene and an optimized secreted embryonic alkaline phosphatase (SEAP) reporter gene into HEK293 cells. The SEAP reporter gene was placed under the control of the IFN-β minimal promoter fused to five NF-κB and AP-1-binding sites. Stimulation with a TLR 8 ligand activates NF-κB and AP-1 which induce the expression of SEAP. Levels of SEAP can be easily determined with HEK-Blue Detection, a cell culture medium that allows for real-time detection of SEAP. HEK-Blue Detection contains all the nutrients necessary for cell growth and a specific SEAP color substrate. The hydrolysis of the substrate by SEAP produces a purple/blue color that can be measured with a spectrophotometer.
When growing to 50-80% confluency, HEK-Blue hTLR7/8 cells were plated into 96-well plate (costar 3599) at a density of 40000 cells/well. Then compounds were added with serial dilutions over 10 points with a 1 nM-10 uM final concentration range in 0.1% DMSO/HEK-Blue Detection. The plates were then incubated for 16 hr at 37° C. in 5% CO2. The optical density at 620-655 nm was read on BMG PHERAstar FSX instrument. The EC50 for each compound was determined by calculating the percentages of the maximum activation identified with Resiquimod or Motolimod.

human TLR7 [2] = molecular target: T1, human TLR7; test: HEK293-Blue hTLR7 reporter assay (QUANTI-BLUE, SEAP readout); parameters: host or cells: HEK293 (HEK-Blue-hTLR7); conditions: HEK-Blue-hTLR7 cells, QUANTI-BLUE assay (A1-A76), 24 hrs
In short: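 Cells seeded at 4×10^4 per well in DMEM/10% heat-inactivated FBS, settled 5 h, then exposed to increasing compound amounts for 24 h at 37° C. Secreted SEAP in supernatant read with Quanti-blue at 620-655 nm after 10-30 min at 37° C.; EC50 from sigmoidal dose-response fit.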

SMILES | EC50 (human TLR7 [1]) [nM] | EC50 (human TLR 8 protein) [nM] | EC50 (human TLR7 [2]) [nM]
CCCC(CCO)Oc1nc(N)c2ncc(Cc3ccc(OCCNC)cc3)n2n1 (single isomer, unassigned) [Compound A92, (R or S) 3-((4-amino-7-(4-(2-(methylamino)ethoxy)benzyl)imidazo[2,1-f][1,2,4]triazin-2-yl)oxy)hexan-1-ol] | 122 | 872 | –
CCCC(CCO)Oc1nc(N)c2ncc(Cc3ccc(OCCNC)cc3)n2n1 (single isomer, unassigned) [Compound A93, (S or R) 3-((4-amino-7-(4-(2-(methylamino)ethoxy)benzyl)imidazo[2,1-f][1,2,4]triazin-2-yl)oxy)hexan-1-ol] | 1.7 | 13.5 | –
CCCC(CCO)Oc1nc(N)c2ncc(Cc3ccc(OCCNC)cc3OC)n2n1 (single isomer, unassigned) [Compound A101, (R or S)-3-((4-amino-7-(2-methoxy-4-(2-(methylamino)ethoxy)benzyl)imidazo[2,1-f][1,2,4]triazin-2-yl)oxy)hexan-1-ol] | 0.78 | 8.6 | –
CCCC(CCO)Oc1nc(N)c2ncc(Cc3ccc(OCCNC)c(C)c3)n2n1 (single isomer, unassigned) [Compound A103, (R or S)-3-((4-amino-7-(3-methyl-4-(2-(methylamino)ethoxy)benzyl)imidazo[2,1-f][1,2,4]triazin-2-yl)oxy)hexan-1-ol] | 2.4 | 47 | –
CCCC(CCO)Oc1nc(N)c2ncc(Cc3ccc(OCCNC)c(F)c3)n2n1 (single isomer, unassigned) [Compound A106, (S or R)-3-((4-amino-7-(3-fluoro-4-(2-(methylamino)ethoxy)benzyl)imidazo[2,1-f][1,2,4]triazin-2-yl)oxy)hexan-1-ol] | 1.6 | 12 | –
CCCC(CCO)Oc1nc(N)c2ncc(Cc3ccc(OCCNC)cc3C)n2n1 (single isomer, unassigned) [Compound A107, (R or S)-3-((4-amino-7-(2-methyl-4-(2-(methylamino)ethoxy)benzyl)imidazo[2,1-f][1,2,4]triazin-2-yl)oxy)hexan-1-ol] | 1.3 | 16 | –
CCCCOc1nc(N)c2ncc(Cc3ccc(OCCNC)nc3)n2n1 [Compound A58, 2-butoxy-7-((6-(2-(methylamino)ethoxy)pyridin-3-yl)methyl)imidazo[2,1-f][1,2,4]triazin-4-amine] | – | 183 | 246

Continued by falling EC50 (human TLR7 [1]), values first:

EC50 (human TLR7 [1]) [nM] | EC50 (human TLR 8 protein) [nM] | SMILES | EC50 (human TLR7 [2]) [nM]
310 | 6250 | CCCC(CCO)Oc1nc(N)c2ncc(Cc3ccc(OCCNC)nc3)n2n1 (single isomer, unassigned) [Compound A81, (R or S) 3-((4-amino-7-((6-(2-(methylamino)ethoxy)pyridin-3-yl)methyl)imidazo[2,1-f][1,2,4]triazin-2-yl)oxy)hexan-1-ol] | –
61 | 622 | CCCC(CCO)Oc1nc(N)c2ncc(Cc3ccc(OCCNC)c(F)c3)n2n1 (single isomer, unassigned) [Compound A105, (R or S)-3-((4-amino-7-(3-fluoro-4-(2-(methylamino)ethoxy)benzyl)imidazo[2,1-f][1,2,4]triazin-2-yl)oxy)hexan-1-ol] | –
10 | 24 | CCCC(CCO)Oc1nc(N)c2ncc(Cc3cccc(OCCNC)c3)n2n1 (single isomer, unassigned) [Compound A104, (R or S)-3-((4-amino-7-(3-(2-(methylamino)ethoxy)benzyl)imidazo[2,1-f][1,2,4]triazin-2-yl)oxy)hexan-1-ol] | –
5 | 22 | CCCC(CCO)Oc1nc(N)c2ncc(Cc3ccc(OCCNC)nc3)n2n1 (single isomer, unassigned) [Compound A82, (S or R) 3-((4-amino-7-((6-(2-(methylamino)ethoxy)pyridin-3-yl)methyl)imidazo[2,1-f][1,2,4]triazin-2-yl)oxy)hexan-1-ol] | –
0.8 | 21 | CCCC(CCO)Oc1nc(N)c2ncc(Cc3ccc(OCCNC)cc3Cl)n2n1 (single isomer, unassigned) [Compound A108, (R or S)-3-((4-amino-7-(2-chloro-4-(2-(methylamino)ethoxy)benzyl)imidazo[2,1-f][1,2,4]triazin-2-yl)oxy)hexan-1-ol] | –
